Laboratory results published in PMC2922960 (Bioorganic & medicinal chemistry letters, 2009).

Legend:
[1] = molecular target: T1, recombinant mammalian FTase (Homo sapiens, UniProt P49354+P49356); experiment: HPLC analysis of farnesylated peptide product formation; assay type: biochemical; conditions: 3 μM peptide, 9 μM FPP, 0.05 μM FTase; for HPLC: formation of farnesylated peptide product: after 60 min incubation with FTase
[2] = molecular target: FTase (Homo sapiens, UniProt P49354+P49356); experiment: steady-state kinetic assay; assay type: biochemical, mammalian; conditions: saturating FPP (10 μM), 0.2-10 μM dansylated peptide, 20-100 nM FTase, 50 mM HEPPSO pH 7.8, 5 mM TCEP, 5 mM MgCl2, 25 °C; fluorescence λex 340 nm, λem 520 nm
[3] = molecular target: T1, recombinant mammalian FTase; experiment: continuous spectrofluorimetric assay of FTase substrate activity; assay type: biochemical; conditions: from fluorescence screen and HPLC confirmation
[4] = test system: FTase; conditions: cited from earlier work

| Substance | HPLC: formation of farnesylated peptide product [1] | further results |
| --- | --- | --- |
| CAIL | +++ | kcat/KM [2]: 27000 ± 2000 M⁻¹ s⁻¹ |
| CALL | + (25% to 50% conversion to product) |  |
| CAYL | − − |  |
| CCLL | + (25% to 50% conversion to product) |  |
| CCSL | − − |  |
| CCVL | +++ | kcat/KM [2]: 7000 ± 1000 M⁻¹ s⁻¹ |
| CEKL | − − |  |
| CGCL | − − |  |
| CGGL | − − |  |
| CGQL | − − |  |
| CHAL | − − |  |
| CHPL | − − |  |
| CIIL | +++ | kcat/KM [2]: 43000 ± 8000 M⁻¹ s⁻¹ |
| CILL | ++ | kcat/KM [2]: 8000 ± 2000 M⁻¹ s⁻¹ |
| CKVL | + (25% to 50% conversion to product) | FTase substrate ability (category in words) [3]: relatively modest FTase substrates |
| CLGL | − − |  |
| CLIL | ++ | FTase substrate ability (category in words) [3]: confirmed substrates |
| CLLL | + (25% to 50% conversion to product) | FTase substrate ability (category in words) [3]: poor FTase substrate |
| CLQL | − (less than 25% conversion) |  |
| CLVL | + (25% to 50% conversion to product) |  |
| CMEL | − − |  |
| CNIL | ++ | kcat/KM [2]: 12000 ± 900 M⁻¹ s⁻¹ |

| Substance | HPLC: formation of farnesylated peptide product [1] | further results |
| --- | --- | --- |
| CNPL | − − |  |
| CPIL | + (25% to 50% conversion to product) | FTase substrate ability (category in words) [3]: confirmed substrates |
| CQLL | − (less than 25% conversion) |  |
| CQNL | − − |  |
| CRLL | + (25% to 50% conversion to product) |  |
| CSFL | − − |  |
| CSIL | +++ | kcat/KM [2]: 5000 ± 1000 M⁻¹ s⁻¹ |
| CSLL | − (less than 25% conversion) |  |
| CSQL | − − |  |
| CSTL | − − |  |
| CSVL | + (25% to 50% conversion to product) |  |
| CTAL | − − |  |
| CTIL | ++ | kcat/KM [2]: 33000 ± 7000 M⁻¹ s⁻¹ |
| CTLL | + (25% to 50% conversion to product) |  |
| CVGL | − − |  |
| CVLL | + (25% to 50% conversion to product) | FTase substrate ability (category in words) [3]: relatively modest FTase substrates |
| DnGCCIL | +++ | kcat/KM [2]: 23000 ± 3000 M⁻¹ s⁻¹; FTase substrate ability (category in words) [3]: efficient FTase substrate |
| DnGCLML | ++ | kcat/KM [2]: 8100 ± 500 M⁻¹ s⁻¹; FTase substrate ability (category in words) [3]: good FTase substrate |
| DnGCVIL | +++ | kcat/KM [2]: 47000 ± 8000 M⁻¹ s⁻¹ |
| DnGCVLS [reference compound] |  | turnover to farnesylated product ([1]; after 15 minutes): complete turnover |
| DnTKCVIL |  | FTase substrate activity under single turnover conditions ([4]; single turnover conditions): FTase substrate; FTase turnover under steady-state conditions ([4]; steady-state conditions): did not exhibit efficient turnover |
